Consider one molecule from US4695590A, “Method for retarding aging” (California Health Technologies, priority 1986, dated 1987).

Experiment [1] relates to microvascular lipid hydroperoxides. Kind of experiment: Pharmacokinetic time-course (double-blind) study of single oral doses of NDGA, microvascular lipid hydroperoxides. It is filed as in vivo, human. The protocol: Placebos were given to two (2) other volunteers. Using the above referenced non-invasive technique called reflective, near-infrared spectroscopy, changes in the microvascular concentrations of lipid hydroperoxides were monitored during 8 hour test periods. […] Subjects received single doses of NDGA and placebos orally, respectively.

The test system of experiment [2] is lipid hydroperoxides in the skin. The experiment is classed as in vivo, human. An excerpt:
FIG. 3 is a graph showing the results of a double blind study set forth in Example 6, wherein a composition containing 2% NDGA by weight was applied topically to the skin of the foreheads of human volunters; and
Turning to FIG. 3, the results of a double-blind time study using a composition containing 2% by weight NDGA can be seen. This composition was the same as the composition set forth in Example 3 with the exception that the percentage of water was reduced to 86.5%. Starting at time zero, 10 milliliters of this cream was vigorously applied topically onto the skin of the forehead of a volunteer. Measurements were taken at different intervals using non-invasive, reflective, near-infrared spectroscopy. The methods of non-invasive, reflective, near infrared spectroscopy used in this example are set forth in detail in R. Lippman, "Rapid in vivo Quantification and Comparision of Hydroperoxides and Oxidized Collagen in Aging Mice, Rabbits and Man", Experimental Gerontology, Vol. 20, pp. 1-5, 1985, which is incorporated herein by this reference.

Experiment [3] has as its system Mitochondria from a human liver. Briefly: Chemiluminescent probe of superoxide and hydroxyl radicals in isolated mitochondria. It is filed as biochemical. An excerpt: Mitrochondria from a human liver were freshly isolated and maintained in a culture environment so that normal respiration and ATP production occurred. Special chemical probes, e.g. luminol-carnitine derivatives, were pipetted into the mitochondria culture media. Uptake of the probes occurred in the mitrochondrial inner membrane where oxygen metabolism and toxic oxygen byproducts are produced. The probes emitted chemiluminescent light in proportion to superoxide (O2^-.) and hydroxyl radicals (.OH). This light was measured by a photomultiplier, and the results were quantified and recorded.

The subject of experiment [4] is Glial cells from a human brain. Kind of experiment: Cellular ATP production in cultivated glial cells (bioluminescence). The experiment is classed as cell-based. Conditions: NDGA 0.5% w/v in culture. The protocol:
Glial cells from a human brain were cultivated by monolayering on Petri dishes. Cellular ATP production was measured using bioluminescent methods (luciferin, luciferase and photomultiplier detection).

For a further experiment, the system named is Uppsala mice. Briefly: Uppsala mice fed lab chow containing 0.5 weight% NDGA, observation of aging and skin wrinkling. The experiment is classed as in vivo. An excerpt:
In one aspect of practice of techniques of this invention, the compounds of formula (1) are useful in retarding the aging phenomena of skin wrinkling. In this example, twenty four (24) Uppsala mice were fed standard lab chow (provided by Anticimax of Sodertalje, Sweden) containing 0.5 weight% NDGA ad libitum from the twelfth to thirty-sixth month of their lifespan.
This increased wrinkling is indicative of collagen and elastin hardening and cross-linking via the conversion of imide to amide bonds as discussed above.

Setting [5] is: isolated human liver mitochondria.

`CC(Cc1ccc(O)c(O)c1)C(C)Cc1ccc(O)c(O)c1` (stereo not drawn) [NDGA, 1,4-bis(3,4-dihydroxyphenyl)-2,3-dimethylbutane]: the “reduction of levels of microvascular lipid hydroperoxides” value in experiment [1] (oral, single doses 50, 75, 100 and 200 mg, during the 4 to 8 hour study periods) is recorded as “at least 15%”. Also, in experiment [1] (when taken at regular intervals of at least 6 hours, 3 times daily), the “neutralization of toxic byproducts of oxygen metabolism, i.e. lipid hydroperoxides (conclusion)” value was “effective neutralizer of toxic byproducts of oxygen metabolism”. For the same molecule, the “facial skin and skin unsaturated lipids, damage” value in experiment [2] (2% by weight NDGA cream topically on forehead) was “facial skin and skin unsaturated lipids are preserved, and damage is prevented”. For the same molecule, the “return to normal level of lipid hydroperoxides” value in experiment [2] (2% by weight NDGA cream topically, after approximately 4 hours) worked out at 190 micromole/cm^2. The “lipid hydroperoxides in skin layers and microvascularization, level decreased to” value in experiment [2] (2% by weight NDGA cream, 10 milliliters topically on forehead, after about one hour, from about 190) is about 151 micromole/cm^2 skin. Further, in experiment [3] (setting [5]), the “lifespan of the human mitochondria” value is reported as “Increased lifespan of the human mitochondria” and the toxic oxygen byproducts result is on record as “significantly reduced toxic oxygen byproducts”. Also, the “steady state light (chemiluminescence of superoxide and hydroxyl radicals)” value in experiment [3] (luminol-carnitine derivative probes) is recorded as “significantly reduced the steady state light”. In addition, the “steady state ATP production” value in experiment [4] is on record as “increase in steady state ATP production was observed”. In addition, the “skin wrinkling, control mice versus NDGA fed mice” value in the experiment on Uppsala mice (0.5 weight% NDGA in chow) is listed as “greater skin wrinkling in control mice versus NDGA fed mice”. Besides, the “visual appearance (youthful and healthy) versus control mice” value in the experiment on Uppsala mice (0.5 weight% NDGA in chow from twelfth month, at 26 months of age) was “visually more youthful and healthy”. For the same molecule, in the experiment on Uppsala mice (24 mice at start, 0.5 weight% NDGA in chow, one control mouse of 6 remaining), the “NDGA fed mice still living” value is on record as “four”.
